# In patent US20060211651A1, “Persulfated oligosaccharide acting on selectins and chemokine” (Taisho Pharmaceutical Co., Ltd., priority 2002, published 2006):
# Key:
# [1] = test system: secondary lymphoid tissue chemokine; assay: Ca2+ mobilization in L1.2/CCR7 cells stimulated with SLC; type: cell-based; conditions: glycosaminoglycan 100 μg/ml; L1.2/CCR7 cells loaded with Fura-2; FIG. 8
# Experimental: i) applying Fura-2 to stimulate to L1.2/CCR7 cell (1×10^6 cells/ml) with secondary lymphoid tissue chemokine in the presence or absence of the therapeutic or prophylactic agent (100 μg/ml) of the present invention, and
# ii) measuring a fluorescent rate to monitor an intracellular calcium concentration according to the description of Hirose, J. et al. [J. Biol. Chem., 276, 5228-5234 (2001); all teachings of which are hereby incorporated by reference].
# L1.2/CCR7 cells (1×10^6 cells/ml) were loaded with Fura-2, and then stimulated with secondary lymphoid tissue chemokine (“SLC” in FIG. 8) or C-terminal truncated secondary lymphoid tissue chemokine (“SLC-T” in FIG. 8), in the presence or absence of glycosaminoglycan (100 μg/ml). The intracellular calcium concentration was monitored by measuring a fluorescent rate in the same manner as described in the previous report [Hirose, J. et al., J. Biol. Chem., 276, 5228-5234 (2001)]. Chondroitin sulfate E (“CS E” in FIG. 8) and chondoroitin sulfate A (“CS A” in FIG. 8) were used as the glycosaminoglycan. In FIG. 8, an arrowhead indicates a time point at which stimulation was given.
# monomeric L-selectin = target: T1, monomeric L-selectin (Homo sapiens, UniProt P14151); assay: BIAcore surface plasmon resonance, immobilized glycosaminoglycan vs monomeric L-selectin; type: binding; conditions: for Kd / koff / kon: L-selectin, GAG immobilized, 25° C.; for interaction with immobilized glycosaminoglycan (sensorgram): monomeric L-selectin
# T1 construct: purchased Genzyme-Techne
# T1 sequence (P14151 39-332 limits assumed): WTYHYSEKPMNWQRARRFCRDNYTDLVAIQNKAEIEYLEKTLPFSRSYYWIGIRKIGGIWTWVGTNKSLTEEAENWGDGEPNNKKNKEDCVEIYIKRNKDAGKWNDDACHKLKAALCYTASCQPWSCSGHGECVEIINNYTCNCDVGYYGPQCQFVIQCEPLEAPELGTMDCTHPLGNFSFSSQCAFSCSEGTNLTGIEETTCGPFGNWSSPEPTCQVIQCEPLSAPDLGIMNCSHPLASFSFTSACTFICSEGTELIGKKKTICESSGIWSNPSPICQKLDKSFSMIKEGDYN
# Experimental: (§1) Affinity kinetics of the interaction between various CS/DS chains and each of L-selectin, P-selectin, CD44 and chemokine were examined by surface plasmon resonance using BIAcore™ biosensor [manufactured by BIAcore AB].
# (§2) All experiments were performed at 25° C. At stages of washing and dissociation, buffer C (20 mM HEPES-NaOH, 0.15M NaCl, 1 mM CaCl2, 1 mM MgCl2, pH6.8) was used as a running buffer.
# (§3) First, about 1.8 to 2.0 kiloresonance unit (1 kiloresonance unit=1 ng/mm^2) of streptavidin were covalently immobilized onto B1 sensor chip via a primary amine group using an amine coupling kit [manufactured by Amercham-Bioscience] according to the instruction provided by the manufacturer. The remaining activated groups were blocked with 150 μl of 1M ethanolamine-HCl (pH8.5). Then, each glycosaminoglycan which had been biotinylated at a reducing end was injected to a sensor tip surface by using EZ-link™ biotin-LC-hydrazide [manufactured by Pierce] so as to obtain about 150 resonance unit of an immobilization level, according to the method of Sadir et al. [J. Biol. Chem., 276, 8288-8296 (2001); all teachings of which are hereby incorporated by reference].
# (§4) Binding assay was performed by injecting continuously each of various concentrations of secondary lymphoid tissue chemokine, γ-interferon inducible protein-10, stromal cell-derived factor-1β, monomeric L-selectin [manufactured by Genzyme-Techne], monomeric P-selectin [manufactured by Genzyme-Techne] and monomeric CD44, to a glycosaminoglycan-coupled sensor tip at a flow rate of 30 μl/min for 0 to 90 seconds, and then injecting a running buffer thereto. A response in resonance unit was recorded as a function of a time.
# (§5) A sensor tip surface was regenerated with 300 μl of 1 M NaCl when chemokine or CD44 was used, or regenerated with 300 μl of 1 M NaCl, and additional 100 μl of 50 mM EDTA (pH8.0), when selectin was used. As a result of regeneration of a sensor tip surface, a remarkable change in a baseline was not observed.
# (§6) An affinity kinetic parameter was determined by BIAevaluation 3.0 software [manufactured by Pharmacia Biosensor] using a single site binding model. […] In FIG. 6 and Table 3, SLC denotes secondary lymphoid tissue chemokin, IP-10 denotes γ-interferon inducible protein-10, SDF-1β denotes stromal cell-derived factor-1β, CS E denotes chondroitin sulfate E, and CS A denotes chondroitin sulfate A. In addition, in Table 3, Kd value for the interaction between monomeric CD44 and chondroitin sulfate E is a value calculated from a binding amount at equilibrium, and Kd value of the interaction between CD44 and hyaluronic acid is a value calculated using CD44-Ig.
# [2] = test system: secondary lymphoid tissue chemokine; assay: ELISA, biotinylated versican binding to SLC in presence of glycosaminoglycan; conditions: 100 μg/ml glycosaminoglycan; FIG. 5
# Experimental: A well of a 96 well flat bottom microtiter plate was coated with BSA (5 μg/ml), anti-versican monoclonal antibody 2B1 (5 μg/ml), CD44-Ig (7 μg/ml), L-selectin-Ig (3 μg/ml), P-selectin-Ig (3 μg/ml) or chemokine (1 μg/ml), and then blocked with a phosphate buffered physiological saline containing 3% by weight of BSA. As the above chemokine, secondary lymphoid tissue chemokine, γ-interferon inducible protein-10, platelet factor 4, stromal cell-derived factor-1β [manufactured by Pepro Tech] and stromal cell-derived factor-1α [manufactured by Pepro Tech] were used.
# Thereafter, the plate was washed with the buffer A, and enzyme-linked immunosorbent assay was performed in the same manner as that of the previous report [Kawashima, H. et al., J. Biol. Chem., 275, 35448-35456 (2000)]. Binding was determined by measuring absorbance at 620 nm using alkaline phosphatase-conjugated streptavidin and Blue Phos™ substrate. In FIG. 5, expression of an abscissa axis is the same as that of FIG. 4.
# monomeric CD44 = target: T2, monomeric CD44 (Homo sapiens, UniProt P16070); assay: BIAcore surface plasmon resonance, immobilized glycosaminoglycan vs monomeric CD44; type: binding
# T2 construct: codons of amino acids positions 172 to 178 of human CD44; Myc-His (from vector pcDNA 3.1/Myc-His(+) B) (C); made in house; host or cells: 293T cells, secreted into conditioned medium and purified on anti-CD44 BRIC 235 Sepharose
# T2 sequence (P16070 21-178 limits assumed): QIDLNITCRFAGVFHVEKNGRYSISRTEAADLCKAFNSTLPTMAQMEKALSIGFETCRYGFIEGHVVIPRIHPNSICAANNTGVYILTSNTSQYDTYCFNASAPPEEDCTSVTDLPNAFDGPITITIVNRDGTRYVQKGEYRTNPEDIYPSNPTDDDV
# Experimental: Human-derived CD44 cDNA was prepared by PCR using a sense primer (SEQ ID NO: 1):
# Thereafter, the conditioned medium was subjected to immunoaffinity chromatography with anti-CD44 monoclonal antibody BRIC 235-coupled CNBr-activated Sepharose 4B, to obtain monomeric CD44. The resulting soluble CD44 was subjected to SDS-PAGE and silver staining. As a result, the purity of the resulting soluble CD44 was more than 95%.
# as §1, §2, §3, §4, §5, §6
# [3] = CD44 monomeric, GAG immobilized, 25° C.
Kd (monomeric L-selectin),koff (monomeric L-selectin),kon (monomeric L-selectin),inhibition of binding between biotinylated versican and secondary lymphoid tissue chemokine [2],binding of monomeric CD44 to glycosaminoglycan (monomeric CD44; monomeric CD44),interaction with immobilized glycosaminoglycan (sensorgram) (monomeric L-selectin),Kd (monomeric CD44; [3]),koff (monomeric CD44; [3]),kon (monomeric CD44; [3]),"Kd (monomeric CD44; monomeric CD44, weakly bound, equilibrium value)",Substance,Ca^2+ mobilization by secondary lymphoid tissue chemokine pre-incubated with glycosaminoglycan [1]
0.0477 µM,0.000366 s⁻¹,7680 M⁻¹ s⁻¹,inhibited,did not bind,,,,,,chondroitin polysulfate [CPS],did not induce
,,,,,did not interact,85.2 µM,0.049 s⁻¹,576 M⁻¹ s⁻¹,,chondroitin sulfate A [CS A],remarkably induced
0.0212 µM,0.000439 s⁻¹,20700 M⁻¹ s⁻¹,inhibited,,bound,,,,211 µM,chondroitin sulfate E [CS E],did not induce
,0.000289 s⁻¹,13700 M⁻¹ s⁻¹,inhibited,did not bind,,,,,,dermatan polysulfate [DPS],did not induce
